{"source": "patent US8569229B2", "about": "“Compositions and methods which modulate G-protein signaling for the treatment of inflammatory disorders such as asthma and allergic conjunctivitis” (The Children's Hospital of Philadelphia, priority 2008, dated 2013)", "key": {"rabbit ASM tissues [1]": {"tested_on": "rabbit ASM tissues", "assay": "Constrictor responsiveness to acetylcholine (ACh) in isolated rabbit ASM tissues, isometric tension in organ bath", "settings": "for effect of pretreatment on PGE2-induced increase in constrictor responsiveness to ACh: PGE2 100 nM x 24 hr; for effect of pretreatment on salmeterol-induced increase in constrictor responsiveness to ACh: salmeterol 10 μM x 24 hr", "excerpt": "(§1) Detection of PDE4D5 mRNA transcripts: Total RNA was extracted from the cultured ASM cells using the TRIzol method (Invitrogen), and cDNAs were isolated by RT-PCR using the SuperScript First Strand Synthesis System kit from Invitrogen, with the following oligonucleotide primer sets (Integrated DNA Technologies): for PDE4D5, 5′-[…]-3′ (forward; SEQ ID NO: 2) and 5′-[…]-3′ (reverse; SEQ ID NO: 3); and for β-actin, 5′-[…]-3′ (forward; SEQ ID NO: 4) and 5′-[…]-3′ (reverse; SEQ ID NO: 5). The reaction volume was 20 μl and cycling conditions used were 35 cycles of 30 sec denaturation at 95° C., followed by 30 sec annealing at 60° C. and elongation at 72° C. for 30 sec. Ex-Tag (Takara Biotechnology) was used as DNA polymerase. […] Following protein extraction and the addition of gel-loading buffer, the extracts were loaded on a 10% SDS-PAGE gel for immunoblotting after transfer to a PVDF membrane. The membranes were then incubated overnight with monoclonal mouse anti-human primary antibodies directed against phospho-CREB and -ATF1, phospho-ERK1/2, or α-actin, and levels were detected by ECL after a 1-hr incubation with a 1:2,000 dilution of HRP-conjugated rabbit anti-mouse secondary antibody, followed by exposure to autoradiography film. The protein band intensities were quantified by densitometry. siRNA-mediated knockdown of PKA: ASM cells were seeded into 6-well plates and, at ˜40% confluency, the medium was replaced with the reduced serum-containing medium, Opti-MEM (Invitrogen). The cells were then transfected twice during a 24-hr interval with two pools of three siRNA duplexes, each pool targeted against the human PKAα or PKAγ catalytic subunits (Santa Cruz Biotechnology; sc-36240 and sc-36236, respectively), or with a non-targeted control (scrambled) siRNA duplex, using Oligofectamine (Invitrogen) as the transfection agent. The pools of siRNAs were applied to each well at a final concentration of 100 nM for each siRNA preparation. […] Transfection of ASM cells with adeno-βARK-ct: Adenovirus (adeno)-βARK-ct, an adenovirus vector encoding the βARK1 carboxyl-terminal domain which blocks Gβγ signaling (25,26), and adeno-β-gal, an adenovirus vector expressing lacZ as a negative control, were constructed using the AdenoX adenovirus construction kit (BD-Clontech). Recombinant plaques were isolated and propagated in HEK293 cells (Invitrogen), with viral purification using the cesium chloride gradient method, and viral titer detected by plaque assay. The ASM cells were transfected with either of the adenoviral vectors at a multiplicity of infection (MOI) of 100, and experiments were conducted at 24 hr following adenoviral tranfections. Pharmacodynamic studies of constrictor and relaxation responsiveness in rabbit ASM tissues: Following initial sedation and subsequent general anesthesia with intramuscular injections of xylazine (10 mg/kg) and ketamine (50 mg/kg), respectively, rabbits were sacrificed with an intravenously administered overdose of sodium pentobarbital (100 mg/kg). As described previously (16), the tracheae were excised via open thoracotomy, the loose connective tissue and epithelium were scraped and removed, and the tracheae were divided into 8 ring segments, each of 6-8 mm in length. […] After these incubations, the tissues were placed in organ baths containing modified Krebs-Ringer solution aerated with 5% CO2 in oxygen (pH of 7.35-7.40), and attached to force transducers to continuously monitor isometric tension. […] The constrictor and relaxation dose-response curves were analyzed with respect to each tissue's maximal isometric contractile force (Tmax) to ACh and maximal relaxation response (Rmax) to isoproterenol from the initial level of active cholinergic contraction. Statistical analyses: Results are expressed as mean±SE values. Comparisons between groups were made using the Student's t-test (two-tailed) or ANOVA with Tukey's post-test analysis, where appropriate."}, "rabbit ASM tissues [2]": {"tested_on": "rabbit ASM tissues", "assay": "Relaxation responsiveness to isoproterenol in isolated rabbit ASM tissues half-maximally contracted with ACh", "settings": "for effect of pretreatment on PGE2-induced impaired relaxation to isoproterenol: PGE2 100 nM x 24 hr; for relaxation responses to isoproterenol in control serum-exposed tissues pretreated with the agent: control (non-asthmatic) serum, 24 hr; for effect of pretreatment on salmeterol-induced impaired relaxation to isoproterenol: salmeterol 10 μM x 24 hr", "excerpt": "as §1"}, "OVA-sensitized rabbits [3]": {"tested_on": "OVA-sensitized rabbits", "assay": "In vivo bronchoconstrictor responses to methacholine (Rrs) in OVA-sensitized, OVA-challenged rabbits", "design": "species or system rabbit", "settings": "1 mg/Kg by nebulizer 2 hr prior to OVA challenge, measured 24 hr after challenge", "experimental": "Both the OVA sensitized and control animals were then challenged with either vehicle (saline) or aerosolized OVA delivered via a nebulizer. The following day, while mechanically ventilated under general anesthesia/paralysis, the rabbits' broncho-constrictor responses to intravenous (i.v.) bolus injections of cumulatively increasing doses of methacholine (MCh) were determined and induced changes in respiratory system resistance (Rrs), measured as previously described (Grunstein et al. J. Appl. Physiol: […]. Environ. Exercise Physiol. 57:1238-1246, 1984). Lung lavage was then performed to obtain bronchoalveolar lavage fluid (BALF) samples, and the lungs were excised for histological examination in H&E-stained paraffin-embedded 4 micron sections."}, "OVA-sensitized rabbits [4]": {"tested_on": "OVA-sensitized rabbits", "assay": "IL-13 and IFN-γ in BALF samples of OVA-sensitized, OVA-challenged rabbits", "assay_type": "in vivo, rabbit", "settings": "pretreated OVA-sensitized+OVA challenged rabbits", "experimental": "In vivo studies were conducted wherein adult NZW rabbits were initially sensitized with weekly intra-peritoneal (i.p.) injections of 2.5 mg OVA and 10 mg of alum adjuvant for 4-5 weeks, and non-sensitized (control) rabbits received alum alone. Both the OVA sensitized and control animals were then challenged with either vehicle (saline) or aerosolized OVA delivered via a nebulizer. The following day, while mechanically ventilated under general anesthesia/paralysis, the rabbits' broncho-constrictor responses to intravenous (i.v.) bolus injections of cumulatively increasing doses of methacholine (MCh) were determined and induced changes in respiratory system resistance (Rrs), measured as previously described (Grunstein et al. J. Appl. Physiol: Respirat. Environ. Exercise Physiol. 57:1238-1246, 1984). Lung lavage was then performed to obtain bronchoalveolar lavage fluid (BALF) samples, and the lungs were excised for histological examination in H&E-stained paraffin-embedded 4 micron sections."}, "human ASM cells": {"tested_on": "human ASM cells", "assay": "Assay of cAMP PDE activity in ASM cell lysates", "assay_type": "cell-based", "settings": "for effect of pretreatment on PGE2-induced increase in PDE activity: PGE2 100 nM x 24 hr, peptides 30 μM (Example III)"}, "[5]": {"settings": "listed as Gβγ inhibitory peptide"}, "[6]": {"settings": "listed as anti-Gβγ cell-permeable inhibitory peptide"}, "[7]": {"settings": "listed as MPS-conjugated anti-Gβγ peptide"}, "[8]": {"settings": "vehicle-exposed control tissues"}}, "note": "“Also recorded” adds a separate entry of the source. Ends that are not written are not given here.", "data": [{"substance": "MPS-Phosducin-like protein C terminus (AAVALLPAVLLALLAVTDQLGEDFFAVDLEAFLQEFGLLPEKE; also: MPS attached) [anti-Gβγ peptide]", "values": [{"measurement": "effect of pretreatment on PGE2-induced increase in constrictor responsiveness to ACh", "setting": "rabbit ASM tissues [1]; [5]", "value": "prevents"}, {"measurement": "effect of pretreatment on PGE2-induced increase in constrictor responsiveness to ACh", "setting": "rabbit ASM tissues [1]; [6]", "value": "prevented"}, {"measurement": "effect of pretreatment on salmeterol-induced increase in constrictor responsiveness to ACh", "setting": "rabbit ASM tissues [1]", "value": "prevented"}, {"measurement": "effect of pretreatment on salmeterol-induced increase in constrictor responsiveness to ACh", "setting": "rabbit ASM tissues [1]; [7]", "value": "ablated"}, {"measurement": "effect of the agent alone on constrictor responses to ACh", "setting": "rabbit ASM tissues [1]; [8]", "value": "no significant effect"}, {"measurement": "effect of pretreatment on PGE2-induced impaired relaxation to isoproterenol", "setting": "rabbit ASM tissues [2]; [5]", "value": "prevents"}, {"measurement": "effect of pretreatment on PGE2-induced impaired relaxation to isoproterenol", "setting": "rabbit ASM tissues [2]; [6]", "value": "prevented"}, {"measurement": "relaxation responses to isoproterenol in control serum-exposed tissues pretreated with the agent", "setting": "rabbit ASM tissues [2]; [5]", "value": "enhances"}, {"measurement": "relaxation responses to isoproterenol in control serum-exposed tissues pretreated with the agent", "setting": "rabbit ASM tissues [2]; listed as Gβγ-inhibitory peptide", "value": "somewhat increased"}, {"measurement": "effect of pretreatment on salmeterol-induced impaired relaxation to isoproterenol", "setting": "rabbit ASM tissues [2]", "value": "prevented"}, {"measurement": "effect of pretreatment on salmeterol-induced impaired relaxation to isoproterenol", "setting": "rabbit ASM tissues [2]; [7]", "value": "ablated"}, {"measurement": "effect of pretreatment on impaired relaxation to isoproterenol in allergic asthmatic (AS) serum-exposed tissues", "setting": "rabbit ASM tissues [2]; tissues passively sensitized 24 hr with AS rabbit serum", "value": "prevented"}, {"measurement": "effect of the agent alone on relaxation responses to isoproterenol", "setting": "rabbit ASM tissues [2]; [8]", "value": "no significant effect"}, {"measurement": "effect on airway constrictor hyper-responsiveness (Rrs responses to MCh)", "setting": "OVA-sensitized rabbits [3]", "value": "largely abrogated"}, {"measurement": "effect on airway constrictor hyper-responsiveness (Rrs responses to MCh)", "setting": "OVA-sensitized rabbits [3]; listed as MPS-conjugated anti-G βγ peptide", "value": "prevented to a similar degree"}, {"measurement": "effect on OVA challenge-induced decrease in BALF IFN-γ", "setting": "OVA-sensitized rabbits [4]", "value": "prevents"}, {"measurement": "effect on OVA challenge-induced increase in BALF IL-13", "setting": "OVA-sensitized rabbits [4]", "value": "prevents"}, {"measurement": "effect of pretreatment on PGE2-induced increase in PDE activity", "setting": "human ASM cells; [5]", "value": "completely ablated"}, {"measurement": "effect of pretreatment on PGE2-induced increase in PDE activity", "setting": "human ASM cells; [6]", "value": "completely abrogated"}, {"measurement": "effect of pretreatment on salmeterol- and isoproterenol-induced increase in PDE activity", "setting": "human ASM cells; salmeterol or isoproterenol 10 μM x 24 hr", "value": "completely abrogated; also recorded: ablated"}]}]}
